Data reported in US9872499B2, “Virus-inactivating composition containing low-molecular weight compound and arginine” (priority 2010, dated 2018).

Legend:
[1] = test system: herpes simplex virus type 1 (HSV-1) strain F; assay: Virus inactivating reaction with HSV-1 in sample solution, remaining infectious virus by plaque assay; assay type: cell-based
[2] = test system: influenza virus A/Aichi (H3N2); assay: Virus inactivating reaction with influenza virus A in sample solution, remaining infectious virus by plaque assay; assay type: cell-based; settings: for Relative Inactivating Efficiency: relative to 0.01% CAE alone
[3] = 0.1 mM catechin compound alone, pH 4.0, 30° C. 5 min
[4] = 0.1 mM catechin compound, 0 M arginine, pH 4.0, relative to 0.1 mM of the same compound alone
[5] = 0.1 mM catechin compound, 0.2 M arginine, pH 4.0, relative to 0.1 mM of the same compound alone
[6] = 0.5 mM catechin compound, 0 M arginine, pH 4.0, relative to 0.1 mM of the same compound alone

For cocoyl arginine ethyl ester [CAE], the “viral titer after inactivation, % of that before inactivation” value ([1]; 0.005% CAE alone, pH 4.0, 30° C. 5 min) was 0.4%, the “Relative Inactivating Efficiency” value ([1]; 0.005% CAE, 0 M arginine, pH 4.0, 10 mM sodium citrate, relative to 0.005% CAE alone) was 1 times and the “Relative Inactivating Efficiency” value ([1]; 0.005% CAE, 0.058 M arginine, pH 4.0, relative to 0.005% CAE alone) was 1.13 times. For the same compound, the “Relative Inactivating Efficiency” value ([1]; 0.005% CAE, 0.115 M arginine, pH 4.0, relative to 0.005% CAE alone) was 20 times, the “viral titer after inactivation, % of that before inactivation” value ([2]; 0.01% CAE alone, pH 4.8, 30° C. 5 min) was 3.1% and the “Relative Inactivating Efficiency” value ([2]; 0.01% CAE, 0 M arginine, pH 4.8, 10 mM sodium citrate) was 1 Times. The “Relative Inactivating Efficiency” value ([2]; 0.01% CAE, 0.115 M arginine, pH 4.8) was 82 Times and the “Relative Inactivating Efficiency” value ([2]; 0.02% CAE, 0.115 M arginine, pH 4.8) was 63 Times.

For O=C(/C=C/c1ccc(O)c(O)c1)OCCc1ccccc1 [Caffeic acid phenethyl ester, caffeic acid phenethyl ester], the “remaining viral titer, % of that obtained before inactivation” value ([1]; 0.01 mM caffeic acid phenethyl ester alone, pH 4.0, 30° C. 5 min) was 0.3%, the “Relative Inactivating Efficiency” value ([1]; 0.01 mM caffeic acid phenethyl ester, 0 M arginine, pH 4.0, relative to 0.01 mM compound alone) was 1 times and the “Relative Inactivating Efficiency” value ([1]; 0.01 mM caffeic acid phenethyl ester, 0.2 M arginine, pH 4.0, relative to 0.01 mM compound alone) was 8 times. The “Relative Inactivating Efficiency” value ([1]; 0.05 mM caffeic acid phenethyl ester, 0 M arginine, pH 4.0, relative to 0.01 mM compound alone) was 1 times, the “Relative Inactivating Efficiency” value ([1]; 0.05 mM caffeic acid phenethyl ester, 0.2 M arginine, pH 4.0, relative to 0.01 mM compound alone) was 122 times and the “Relative Inactivating Efficiency” value ([1]; 0.1 mM caffeic acid phenethyl ester, 0 M arginine, pH 4.0, relative to 0.01 mM compound alone) was 1 times. For the same compound, the “Relative Inactivating Efficiency” value ([1]; 0.1 mM caffeic acid phenethyl ester, 0.2 M arginine, pH 4.0, relative to 0.01 mM compound alone) was over 243 times and the “Relative Inactivating Efficiency” value ([1]; 0.1 mM caffeic acid phenethyl ester, 0.2 M arginine, pH 4.0, relative to 0.01 mM compound alone, listed as caffeic acid phenethyl ester) was “more than 243 times”.

For O=C(O[C@@H]1Cc2c(O)cc(O)cc2O[C@@H]1c1ccc(O)c(O)c1)c1cc(O)c(O)c(O)c1 [(−)epicatechin gallate], the “remaining viral titer, % of the viral amount before inactivation” value [1, 3] was 0.04%, the “Relative Inactivating Efficiency” value [1, 4] was 1 times and the “Relative Inactivating Efficiency” value [1, 5] was 59 times. For the same compound, the “Relative Inactivating Efficiency” value [1, 6] was 27 times.

In the case of O=C1O[C@H]([C@@H](O)CO)C(=O)C1=O [Dehydroascorbic acid, dehydroascorbic acid], the “remaining viral titer, % of the viral amount before inactivation” value ([1]; 0.1 mM dehydroascorbic acid alone, pH 4.0, 30° C. 5 min) is reported as 7.3%, the “Relative Inactivating Efficiency” value ([1]; 0.1 mM dehydroascorbic acid, 0 M arginine, pH 4.0, relative to 0.1 mM compound alone) is reported as 1 times and the “Relative Inactivating Efficiency” value ([1]; 0.1 mM dehydroascorbic acid, 0.2 M arginine, pH 4.0, relative to 0.1 mM compound alone) is reported as 248 times. For the same compound, the “Relative Inactivating Efficiency” value ([1]; 1 mM dehydroascorbic acid, 0 M arginine, pH 4.0, relative to 0.1 mM compound alone) was 1 times, the “Relative Inactivating Efficiency” value ([1]; 1 mM dehydroascorbic acid, 0.2 M arginine, pH 4.0, relative to 0.1 mM compound alone) was 1440 times and the “Relative Inactivating Efficiency” value ([1]; 10 mM dehydroascorbic acid, 0 M arginine, pH 4.0, relative to 0.1 mM compound alone) was 1 times. The “Relative Inactivating Efficiency” value ([1]; 10 mM dehydroascorbic acid, 0.2 M arginine, pH 4.0, relative to 0.1 mM compound alone) was over 7200 times and the “Relative Inactivating Efficiency” value ([1]; 10 mM dehydroascorbic acid, 0.2 M arginine, pH 4.0, relative to 0.1 mM compound alone, listed as dehydroascorbic acid) was “more than 7200 times”.

With [Cl-].[Na+] [NaCl, reference compound] the “Relative Inactivating Efficiency” value ([1]; pH 4) was 0.011 times.

In the case of (−)epigallocatechin gallate, the “remaining viral titer, % of the viral amount before inactivation” value [1, 3] is reported as 0.02%, the “Relative Inactivating Efficiency” value [1, 4] is reported as 1 times and the “Relative Inactivating Efficiency” value [1, 5] is reported as 12 times. For the same compound, the “Relative Inactivating Efficiency” value [1, 6] was 268 times.

For N=C(N)NCCC[C@H](N)C(=O)O [Arginine, arginine], the “Relative Inactivating Efficiency” value ([1]; 0% CAE, 0.058 M arginine alone, pH 4.0, 10 mM sodium citrate, relative to 0.005% CAE alone) was 0.03 times and the “Relative Inactivating Efficiency” value ([1]; pH 4) was 1075 times.

For O=C(O)/C=C/c1ccc(O)c(O)c1 [Caffeic acid, caffeic acid], the “viral titer after inactivation, % of that before inactivation” value ([1]; 0.1 mM caffeic acid alone, pH 4.0 (Comparative Example 2)) was 0.13%, the “viral titer after inactivation, % of the viral amount before inactivation” value ([1]; 0.1 mM caffeic acid alone, pH 4.0, 30° C. 5 min (Example 1)) was 0.3% and the “Relative Inactivating Efficiency” value ([1]; 0.1 mM caffeic acid, 0 M NaCl, pH 4.0, 20 mM sodium acetate, relative to 0.1 mM caffeic acid alone) was 1 times. The “Relative Inactivating Efficiency” value ([1]; 0.1 mM caffeic acid, 0 M arginine, pH 4.0, 30° C. 5 min, relative to 0.1 mM caffeic acid alone) was 1 times, the “Relative Inactivating Efficiency” value ([1]; 0.1 mM caffeic acid, 0.2 M NaCl, pH 4.0, relative to 0.1 mM caffeic acid alone) was 0.010 times and the “Relative Inactivating Efficiency” value ([1]; 0.1 mM caffeic acid, 0.2 M NaCl, pH 4.0, relative to 0.1 mM caffeic acid alone, listed as caffeic acid) was 0.01 times. The “Relative Inactivating Efficiency” value ([1]; 0.1 mM caffeic acid, 0.2 M arginine, pH 4.0, 30° C. 5 min, relative to 0.1 mM caffeic acid alone) was 1.5 times, the “Relative Inactivating Efficiency” value ([1]; 0.5 mM caffeic acid, 0 M arginine, pH 4.0, 30° C. 5 min, relative to 0.1 mM caffeic acid alone) was 1.3 times and the “Relative Inactivating Efficiency” value ([1]; 0.5 mM caffeic acid, 0.2 M NaCl, pH 4.0, relative to 0.1 mM caffeic acid alone) was 0.009 times. For the same compound, the “Relative Inactivating Efficiency” value ([1]; 0.5 mM caffeic acid, 0.2 M arginine, pH 4.0, 30° C. 5 min, relative to 0.1 mM caffeic acid alone) was 3.3 times, the “Relative Inactivating Efficiency” value ([1]; 1 mM caffeic acid, 0 M arginine, pH 4.0, 30° C. 5 min, relative to 0.1 mM caffeic acid alone) was 1.4 times and the “Relative Inactivating Efficiency” value ([1]; 1.0 mM caffeic acid, 0.2 M NaCl, pH 4.0, relative to 0.1 mM caffeic acid alone) was 0.007 times. For the same compound, the “Relative Inactivating Efficiency” value ([1]; 1 mM caffeic acid, 0.2 M arginine, pH 4.0, 30° C. 5 min, relative to 0.1 mM caffeic acid alone) was 7.8 times.
